Source: patent US8708475B2, “Ultraviolet crosslinking inkjet ink, ink cartridge containing same, and image forming method and apparatus using same” (Ricoh Company, Ltd., priority 2010, dated 2014)
“Also recorded” adds a separate entry of the source. Like-named read-outs stand apart in the source and are kept apart here.

Experiments:
[1] = described in the MSDS; cited from earlier work
[2] = maximization method, Contact Dermatitis 8 223-235 (1982); cited from earlier work
mice [3] = details: mouse, in vivo
[4] = in vivo; cited from earlier work
mice [5] = assay: LLNA method skin sensitization test (OECD Test Guideline 429), stimulation index from BrdU content of auricular lymph nodes; details: mouse, in vivo

Compound	skin sensitization potential [2]	SI value, bound stated for listed methacrylates (mice [3])	further results
CSc1ccc(C(=O)C(C)(C)N2CCOCC2)cc1 [2-Methyl-1-[4-(methylthio)phenyl]-2-morphorinopropane-1-one]			skin sensitization potential [1]: no skin sensitization potential; also recorded: pane-1-one (nega-
C=C(C)C(=O)OCCCCCC [n-Hexyl methacrylate]	negative skin sensitization potential	less than 3	
C=CC(=O)OCC(CC)(COC(=O)C=C)COC(=O)C=C [Trimethylolpropane triacrylate]			skin irritation potential (in words) [4]: high skin irritation potential
C=C(C)C(=O)OCC(C)(C)COC(=O)C(=C)C [Neopentyl glycol dimethacrylate]			SI value, bound stated for listed methacrylates (mice [3]; female, 3 days): less than 3
C=C(C)C(=O)OCCCCC [n-Pentyl methacrylate]	negative skin sensitization potential	less than 3	
Polyethylene glycol (600) dimethacrylate		less than 3	
C=C(C)C(=O)OC(C)(C)C [t-Butyl methacrylate]	negative skin sensitization potential	less than 3	
Polyethylene glycol (400) dimethacrylate		less than 3	
C=C(C)C(=O)OCC(CC)(COC(=O)C(=C)C)COC(=O)C(=C)C [Trimethylolpropane trimethacrylate]			skin sensitization potential (in words) (mice [5]): low skin sensitization potential; skin irritation potential (in words) [4]: low skin irritation potential
